Measured values taken from US12528761B2, “Thyromimetics” (Autobahn Therapeutics, Inc., priority 2020, dated 2026).

Assays:
[1] = target: T1, TRα (Homo sapiens, UniProt P10827); experiment: TR reporter-gene assay (Gal4 DBD hybrid, luciferase), TRα; format: cell-based; settings: HEK293-derived reporter cells, 24 hr treatment; read-out: TRα EC50
T1 construct: expressed in transfected cells; host or cells: HEK293
T1 sequence (P10827 1-410 isoform P10827-2): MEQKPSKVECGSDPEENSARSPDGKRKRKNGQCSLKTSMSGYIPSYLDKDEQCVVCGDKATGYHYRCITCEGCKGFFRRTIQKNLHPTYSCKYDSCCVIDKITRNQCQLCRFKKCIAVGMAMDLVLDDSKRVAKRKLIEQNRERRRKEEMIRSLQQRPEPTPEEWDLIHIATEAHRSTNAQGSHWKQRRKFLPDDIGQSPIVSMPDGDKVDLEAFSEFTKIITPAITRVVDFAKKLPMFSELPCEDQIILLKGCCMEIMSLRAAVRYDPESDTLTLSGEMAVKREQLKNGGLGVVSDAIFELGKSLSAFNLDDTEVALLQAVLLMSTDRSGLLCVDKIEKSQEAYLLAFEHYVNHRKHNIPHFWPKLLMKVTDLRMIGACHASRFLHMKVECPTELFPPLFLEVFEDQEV
Description: (§1) Compounds were tested for thyroid-hormone receptor activity using TR reporter-gene assays. Reporter cells used in the assays express a TR-receptor hybrid (either TRα or TRβ) in which the native N-terminal DNA binding domain (DBD) has been replaced with that of the yeast Gal4 DBD. The reporter gene, firefly luciferase, is functionally linked to the Gal4 upstream activation sequence (UAS). Both cell lines were derived from human embryonic kidney (HEK293).
(§2) Step 1: A suspension of reporter cells was prepared in cell recovery medium containing 10% charcoal-stripped FBS, and dispensed into assay plates. The plates were pre-incubated for 6 hours in a cell culture incubator (37° C./5% CO2/85% humidity).
(§3) These intermediate stocks were subsequently diluted directly into compound screening medium containing 10% charcoal-stripped FBS to generate “2×-concentration” treatment media (containing 0.2, 0.4 or 0.8% DMSO).
(§4) Step 3: At the end of the pre-incubation period, culture media were discarded from the assay plates, and all wells received 100 μl of compound screening medium. 100 μl of each of the previously prepared “2×-concentration” treatment media were dispensed into duplicate assay wells, thereby achieving the desired final treatment concentrations. The final concentration of DMSO in all assay wells was 0.1, 0.2 or 0.4%. Assay plates were incubated for 24 hr in a cell culture incubator (37° C./5% CO2/85% humidity).
(§5) Step 4: At the 24 h assay endpoint, treatment media were discarded and 100 µl/well of luciferase detection reagent was added. Relative luminometer units (RLUs) were quantified from each assay well.

[2] = target: T2, TRβ (Homo sapiens, UniProt P10828); experiment: TR reporter-gene assay (Gal4 DBD hybrid, luciferase), TRβ; format: cell-based; settings: for EC50: HEK293-derived reporter cells, 24 hr treatment, read-out: TRβ EC50; for T3-SI (selectivity index, EC50 (TRα)/EC50 (TRβ)): class symbols
T2 construct: expressed in transfected cells; host or cells: HEK293
T2 sequence (P10828 217-461 limits assumed): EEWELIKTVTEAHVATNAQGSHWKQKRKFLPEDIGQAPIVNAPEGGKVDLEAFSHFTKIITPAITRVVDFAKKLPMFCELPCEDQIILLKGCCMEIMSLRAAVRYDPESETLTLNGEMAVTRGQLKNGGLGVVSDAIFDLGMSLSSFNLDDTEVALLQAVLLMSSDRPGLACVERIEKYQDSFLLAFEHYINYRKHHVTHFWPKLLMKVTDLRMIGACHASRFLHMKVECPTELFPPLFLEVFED
Description: as §1, §2, §3, §4, §5

| Compound | EC50 [1] [µM] | EC50 [2] [µM] | T3-SI (selectivity index, EC50 (TRα)/EC50 (TRβ)) [2] |
| --- | --- | --- | --- |
| Cc1cc(NC(=O)CC(=O)O)cc(C)c1Cc1ccc(O)c(C(C)c2ccc(F)cc2)c1 (stereo not shown) [Compound 4, 3-((4-(3-(1-(4-fluorophenyl)ethyl)-4-hydroxybenzyl)-3,5-dimethylphenyl)amino)-3-oxopropanoic acid] | 0.1 to 1 | 0.01 to 0.1 | ++ (3× < T3-SI ≤ 30×) |
| CCOC(=O)/C(=C\c1cc(Cl)c(Cc2ccc(O)c(C(C)C)c2)c(Cl)c1)C(=O)O [Compound 90, 3-(3,5-dichloro-4-(4-hydroxy-3-isopropylbenzyl)phenyl)-2-(ethoxycarbonyl)acrylic acid] | > 1 | > 1 | ++ (3× < T3-SI ≤ 30×) |
| CNC(=O)C(F)(F)Oc1cc(Cl)c(Cc2ccc(O)c(C(C)C)c2)c(Cl)c1 [Compound 84, 2-(3,5-dichloro-4-(4-hydroxy-3-isopropylbenzyl)phenoxy)-2,2-difluoro-N-methylacetamide] | 0.1 to 1 | 0.1 to 1 | + (T3-SI ≤ 3×) |
| CC(C)c1c(O)ccc(Cc2c(Cl)cc(CC3NC(=O)NC3=O)cc2Cl)c1F (stereo not shown) [Compound 206, 5-(3,5-dichloro-4-(2-fluoro-4-hydroxy-3-isopropylbenzyl)benzyl)imidazolidine-2,4-dione] | > 1 | > 1 | +++ (T3-SI > 30×) |
| CC(c1ccc(F)cc1)c1c(O)ccc(Cc2c(Cl)cc(NC(=O)CC(=O)O)cc2Cl)c1F (stereo not shown) [Compound 56, 3-((3,5-dichloro-4-(2-fluoro-3-(1-(4-fluorophenyl)ethyl)-4-hydroxybenzyl)phenyl)amino)-3-oxopropanoic acid] | 0.1 to 1 | 0.01 to 0.1 | ++ (3× < T3-SI ≤ 30×) |
| CC(C)c1cc(Cc2c(Cl)cc(NCCC(=O)O)cc2Cl)ccc1O [Compound 103, 3-((3,5-dichloro-4-(4-hydroxy-3-isopropylbenzyl)phenyl)amino)propanoic acid] | 0.01 to 0.1 | 0.01 to 0.1 | ++ (3× < T3-SI ≤ 30×) |
| Cc1cc(CS(=O)(=O)CC(=O)O)cc(Cl)c1Cc1ccc(O)c(C(C)C)c1 [Compound 245, 2-((3-chloro-4-(4-hydroxy-3-isopropylbenzyl)-5-methylbenzyl)sulfonyl)acetic acid] | > 1 | > 1 | ++ (3× < T3-SI ≤ 30×) |
| Cc1cc(CNCC(=O)O)cc(Cl)c1Cc1ccc(O)c(C(C)C)c1 [Compound 251, (3-chloro-4-(4-hydroxy-3-isopropylbenzyl)-5-methylbenzyl)glycine] | 0.1 to 1 | > 1 | + (T3-SI ≤ 3×) |
| O=C(O)Cc1cc(Cl)c(Cc2ccc(O)c(CN3CCCC3=O)c2)c(Cl)c1 [Compound 138, 2-(3,5-dichloro-4-(4-hydroxy-3-((2-oxopyrrolidin-1-yl)methyl)benzyl)phenyl)acetic acid] | > 1 |  |  |
| CC(C)c1c(O)ccc(Cc2c(Cl)cc(N(C)CC(=O)O)cc2Cl)c1F [Compound 140, N-(3,5-dichloro-4-(2-fluoro-4-hydroxy-3-isopropylbenzyl)phenyl)-N-methylglycine] | > 1 |  |  |
| CC(C)c1c(O)ccc(Cc2c(Cl)cc(NC(=O)C(=O)O)cc2Cl)c1F [Compound 63, 2-((3,5-dichloro-4-(2-fluoro-4-hydroxy-3-isopropylbenzyl)phenyl)amino)-2-oxoacetic acid] |  |  | ++ (3× < T3-SI ≤ 30×) |
| CC(C)c1cc(Cc2c(Cl)cc(C(CC(=O)O)C(=O)O)cc2Cl)ccc1O (stereo not shown) [Compound 142, 2-(3,5-dichloro-4-(4-hydroxy-3-isopropylbenzyl)phenyl)succinic acid] | > 1 |  |  |
| O=C(O)Cc1cc(Cl)c(Cc2ccc(O)c(C(=O)N3CCCCC3)c2)c(Cl)c1 [Compound 137, 2-(3,5-dichloro-4-(4-hydroxy-3-(piperidine-1-carbonyl)benzyl)phenyl)acetic acid] |  | > 1 |  |
| CC(=O)NOCc1cc(Cl)c(Cc2ccc(O)c(C(C)C)c2F)c(Cl)c1 [Compound 211, N-((3,5-dichloro-4-(2-fluoro-4-hydroxy-3-isopropylbenzyl)benzyl)oxy)acetamide] | 0.1 to 1 |  |  |

Continued, values first:

| EC50 [1] [µM] | EC50 [2] [µM] | T3-SI (selectivity index, EC50 (TRα)/EC50 (TRβ)) [2] | Compound |
| --- | --- | --- | --- |
| 0.01 to 0.1 | 0.01 to 0.1 | ++ (3× < T3-SI ≤ 30×) | Cc1cc(NCC(=O)O)c(F)c(Cl)c1Cc1ccc(O)c(C(C)C)c1 [Compound 222, (3-chloro-2-fluoro-4-(4-hydroxy-3-isopropylbenzyl)-5-methylphenyl)glycine] |
| 0.01 to 0.1 | 0.01 to 0.1 | ++ (3× < T3-SI ≤ 30×) | CC(C)c1cc(Cc2c(Cl)cc(NCC(=O)O)cc2Cl)ccc1O [Compound 20, (3,5-dichloro-4-(4-hydroxy-3-isopropylbenzyl)phenyl)glycine] |
| < 0.01 | < 0.01 | ++ (3× < T3-SI ≤ 30×) | Cc1c(F)c(NCC(=O)O)cc(Cl)c1Cc1ccc(O)c(C(C)C)c1F [Compound 133, (5-chloro-2-fluoro-4-(2-fluoro-4-hydroxy-3-isopropylbenzyl)-3-methylphenyl)glycine] |
| 0.01 to 0.1 |  |  | O=C(O)CNc1cc(Cl)c(Cc2ccc(O)c(-c3cc(OC(F)F)ccc3F)c2F)c(Cl)c1 [Compound 139, (3,5-dichloro-4-((5′-(difluoromethoxy)-2,2′-difluoro-6-hydroxy-[1,1′-biphenyl]-3-yl)methyl)phenyl)glycine] |
| 0.01 to 0.1 | < 0.01 | ++ (3× < T3-SI ≤ 30×) | CC(c1ccc(F)cc1)c1cc(Cc2c(Cl)cc(CC(=O)O)cc2Cl)ccc1O (stereo not shown) [Compound 9, 2-(3,5-dichloro-4-(3-(1-(4-fluorophenyl)ethyl)-4-hydroxybenzyl)phenyl)acetic acid] |
| 0.01 to 0.1 | < 0.01 | ++ (3× < T3-SI ≤ 30×) | O=C(O)CCc1cc(Cl)c(Cc2ccc(O)c(-c3cc(OC(F)F)ccc3F)c2F)c(Cl)c1 [Compound 44, 3-(3,5-dichloro-4-((5′-(difluoromethoxy)-2,2′-difluoro-6-hydroxy-[1,1′-biphenyl]-3-yl)methyl)phenyl)propanoic acid] |
| 0.01 to 0.1 | 0.01 to 0.1 | + (T3-SI ≤ 3×) | Cc1cc(/C=C/C(=O)O)cc(Cl)c1Cc1ccc(O)c(C(C)C)c1F [Compound 250, (E)-3-(3-chloro-4-(2-fluoro-4-hydroxy-3-isopropylbenzyl)-5-methylphenyl)acrylic acid] |
| 0.01 to 0.1 | 0.01 to 0.1 | ++ (3× < T3-SI ≤ 30×) | CC(C)c1cc(Cc2c(Cl)cc(/C=C/CC(=O)O)cc2Cl)ccc1O [Compound 15, (E)-4-(3,5-dichloro-4-(4-hydroxy-3-isopropylbenzyl)phenyl)but-3-enoic acid] |
| 0.01 to 0.1 | 0.01 to 0.1 | + (T3-SI ≤ 3×) | CC(c1ccc(F)cc1)c1c(O)ccc(Cc2c(Cl)cc(CCC(=O)O)cc2Cl)c1F (stereo not shown) [Compound 18, 3-(3,5-dichloro-4-(2-fluoro-3-(1-(4-fluorophenyl)ethyl)-4-hydroxybenzyl)phenyl)propanoic acid] |
| 0.01 to 0.1 | 0.1 to 1 | + (T3-SI ≤ 3×) | CC(C)c1c(O)ccc(Cc2c(Cl)cc(CNCC(=O)O)cc2Cl)c1F [Compound 110, (3,5-dichloro-4-(2-fluoro-4-hydroxy-3-isopropylbenzyl)benzyl)glycine] |
